From patent US20090312297A1, “METHODS FOR TREATING HYPERCHOLESTEROLEMIA AND ATHEROSCLEROSIS” (PRESIDENT AND FELLOWS OF HARVARD COLLEGE, priority 2006, published 2009)

Columns and labels:
Format in all cases: in vivo, mouse
[1] = system: apoE−/− mice; assay: Atherosclerotic lesions in aortas (Oil-Red-O staining) of apoE−/− mice on western diet; conditions: for atherosclerotic lesion area per full aorta: p<0.05 vs. control, FIG. 2(a)
Description: (§1) apoE−/− mice (a commonly used model of hypercholesterolemia and atherosclerosis) were purchased from Jackson Labs. At 6 weeks of age, the mice were placed on a western diet (to further increase cholesterol levels and vascular lesions) and treatments with either phosphate buffered saline (PBS) (vehicle) or TUDCA (500 mg/kg/day, single dose, i.p.) were started.
After 3 months of western diet and treatment, mice were sacrificed and aortas were dissected and fixed in 10% buffered formalin and stained with Oil-Red-O which stains lipids.
(§2) apoE−/− mice were purchased from Jackson Labs. At 6 weeks of age, the mice were placed on a western diet and treatments with either phosphate buffered saline (PBS) (vehicle); TUDCA (50 mg/kg/day or 500 mg/kg/day, single dose, i.p.); or 4-PBA (10 mg/kg/day, 200 mg/kg/day, or 1 g/kg/day, single dose, oral gavage) were started.
After 3 months of western diet and treatment, mice were sacrificed and aortas were dissected and fixed in 10% buffered formalin and stained with Oil-Red-O. The amount of atherosclerotic lesion area per full aorta was determine and is expressed as a percent as shown in FIG. 2(a). Mice receiving vehicle (PBS) developed robust atherosclerotic lesions in the aortic arch as well as in the thoracic and abdominal parts of the aorta (0.25%±0.06). […] PBA administration at a dose of 10 mg/kg/day was also found to be effective in reducing formation of atherosclerotic lesions (0.09%±0.03, n=4, p<0.05 vs. control).

[2] = system: apoE−/− mice; assay: Lipoprotein profile analysis of serum by HPLC in apoE−/− mice on western diet; conditions: Example 2, 3 months
Description: as §2
(§3) Blood samples were obtained from the animals described above. Lipoprotein profiles analysis was performed by HPLC (FIG. 2b), and total cholesterol levels (FIG. 2c). […] Moreover, the ability to reduce the development of atherosclerotic lesions is not dependent on the ability of a compound to reduce cholesterol.

[3] = system: apoE−/− mice; assay: Serum total cholesterol levels in apoE−/− mice on western diet; conditions: 3 months
Description: as §1
Blood samples were obtained from the animals described above and serum cholesterol levels were determined by the Piccolo automated device with lipid panel (Abaxis, Calif.).
as §2, §3

In the case of `O=C(O)CCCc1ccccc1` [PBA, 4-phenyl butyrate], the “amount of atherosclerotic lesion relative to control treated animals” value ([1]; Example 1, about 10 mg/kg/day, similar conditions) is reported as “effective in reducing the amount of atherosclerotic lesion”, the “atherosclerotic lesion area per full aorta” value ([1]; Example 2, 10 mg/kg/day oral gavage, 3 months, n=4) is reported as 0.09%±0.03 and the “reduction of formation of atherosclerotic lesions” value ([1]; Example 2, higher doses (200 mg/kg/day, 1 g/kg/day), oral gavage, 3 months) is reported as “no similar reduction was observed”. The “total cholesterol or specific lipoprotein levels” value ([2]; 4-PBA oral gavage (10 mg/kg in FIG. 2)) was “no significant changes”.

`C[C@H](CCC(=O)NCCS(=O)(=O)O)[C@H]1CC[C@H]2[C@@H]3[C@@H](O)C[C@@H]4C[C@H](O)CC[C@]4(C)[C@H]3CC[C@]12C` [TUDCA, tauroursodeoxycholic acid] was tested, and the “Oil-Red-O staining of aortas” value ([1]; Example 1, 500 mg/kg/day, single dose, i.p., 3 months of western diet and treatment, vs PBS) was “PBS treated animals had substantially more Oil-Red-O staining”, the “atherosclerotic lesion area per full aorta” value ([1]; Example 2, 50 mg/kg/day i.p., 3 months, n=3) was 0.03%±0.01 and the “atherosclerotic lesion area per full aorta” value ([1]; Example 2, 500 mg/kg/day i.p., 3 months, n=3) was 0.01%±0.01. For the same compound, the serum cholesterol levels ([3]; Example 1, 500 mg/kg/day, single dose, i.p., Piccolo lipid panel, FIG. 1, vs PBS) was “significantly (p<0.001) lowered”, the total cholesterol ([3]; Example 2, 500 mg/kg/day i.p., FIG. 2c) was “significant decrease” and the “total cholesterol or specific lipoprotein levels” value ([2]; 50 mg/kg/day i.p.) was “no significant changes”. For the same compound, the HDL ([2]; 500 mg/kg/day i.p., FIG. 2b) was “marked increase”, the LDL ([2]; 500 mg/kg/day i.p., FIG. 2b) was “significant decrease” and the VLDL ([2]; 500 mg/kg/day i.p., FIG. 2b) was “significant decrease”.
